BindingDB's records for doi:10.1016/0006-2952(86)90769-0 (Wyeth Laboratories, 1986)

Tests used:
[1] = molecular target: T1, Alpha-2C adrenergic receptor (Rattus norvegicus, UniProt P22086)
T1 sequence (P22086 whole entry): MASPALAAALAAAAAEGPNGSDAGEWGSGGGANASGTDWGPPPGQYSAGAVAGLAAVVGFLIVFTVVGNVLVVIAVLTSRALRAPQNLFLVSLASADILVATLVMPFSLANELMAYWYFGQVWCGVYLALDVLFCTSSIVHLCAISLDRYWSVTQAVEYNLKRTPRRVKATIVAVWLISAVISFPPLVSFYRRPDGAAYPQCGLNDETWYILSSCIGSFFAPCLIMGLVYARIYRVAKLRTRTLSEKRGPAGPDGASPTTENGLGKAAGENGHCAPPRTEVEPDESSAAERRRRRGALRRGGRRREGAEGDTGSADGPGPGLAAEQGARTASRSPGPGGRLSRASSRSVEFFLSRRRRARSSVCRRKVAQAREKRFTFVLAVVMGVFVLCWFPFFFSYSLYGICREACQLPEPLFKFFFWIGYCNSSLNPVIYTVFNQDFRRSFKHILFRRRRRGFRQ

[2] = molecular target: T2, Muscarinic acetylcholine receptor M2 (Rattus norvegicus, UniProt P10980)
T2 sequence (P10980 whole entry): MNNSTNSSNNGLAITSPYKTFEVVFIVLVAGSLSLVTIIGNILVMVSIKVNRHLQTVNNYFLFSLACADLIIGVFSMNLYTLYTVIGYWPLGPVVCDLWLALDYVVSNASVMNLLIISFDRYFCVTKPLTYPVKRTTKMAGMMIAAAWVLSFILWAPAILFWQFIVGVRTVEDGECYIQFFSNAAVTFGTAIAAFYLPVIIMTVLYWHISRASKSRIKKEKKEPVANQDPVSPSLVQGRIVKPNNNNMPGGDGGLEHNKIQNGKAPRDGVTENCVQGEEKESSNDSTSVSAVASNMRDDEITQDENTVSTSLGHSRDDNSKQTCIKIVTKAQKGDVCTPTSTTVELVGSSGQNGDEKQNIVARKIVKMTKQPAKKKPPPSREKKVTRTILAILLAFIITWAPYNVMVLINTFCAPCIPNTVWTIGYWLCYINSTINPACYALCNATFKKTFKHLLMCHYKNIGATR

[3] = molecular target: Histamine H1 receptor (Rattus norvegicus, UniProt P31390)
Sequence of Histamine H1 receptor (P31390 whole entry): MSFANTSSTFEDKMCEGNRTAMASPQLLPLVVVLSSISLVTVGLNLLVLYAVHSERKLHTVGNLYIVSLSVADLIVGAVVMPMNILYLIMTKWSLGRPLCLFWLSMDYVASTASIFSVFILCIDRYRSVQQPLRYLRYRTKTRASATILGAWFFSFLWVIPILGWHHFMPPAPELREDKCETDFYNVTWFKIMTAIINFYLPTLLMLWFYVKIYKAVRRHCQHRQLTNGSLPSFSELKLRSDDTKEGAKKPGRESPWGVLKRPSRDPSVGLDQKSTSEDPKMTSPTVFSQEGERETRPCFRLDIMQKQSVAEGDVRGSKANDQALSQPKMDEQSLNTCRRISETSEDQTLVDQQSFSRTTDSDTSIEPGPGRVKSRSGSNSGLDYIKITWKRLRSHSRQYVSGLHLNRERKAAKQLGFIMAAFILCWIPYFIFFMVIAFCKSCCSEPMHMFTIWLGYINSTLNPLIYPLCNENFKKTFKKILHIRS

CNCCCN1c2ccccc2CCc2ccccc21 [Desmethylimipramine]
Ki [1]: > 10 µM
Ki [2]: 0.05 µM

COc1ccc(C(CN(C)C)C2(O)CCCCC2)cc1 (stereo not given) [NSC_62923]
Ki [1]: > 10 µM
Ki [2]: > 10 µM
Ki [3]: > 10 µM
